Test results: patent US6737383B1, “Herbicidal oxadiazolidines” (priority 1999, dated 2004)

What was measured:
soybean = experiment: Test C postemergence soybean; type: in vivo, Glycine max; conditions: 0 to 100 scale, 0 no effect, 100 complete control
Procedure, shortened: (§1)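 In this greenhouse assay, treated and untreated plants were kept for approximately 14 to 21 days following postemergence application, then rated by eye on a scale from 0 (no effect) to 100 (complete control).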

common poppy = experiment: Test E common poppy; type: in vivo, Papaver rhoeas; conditions: Postemergence
Procedure, shortened: (§2)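 Visually scored herbicidal effect relative to untreated plants, taken ~21 to 28 days post-application; compound in solvent with surfactant; postemergence sprays at the 1- to 4-leaf stage.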

field violet = experiment: Test E field violet; type: in vivo, Viola arvensis; conditions: Postemergence; for Plant response rating, Field violet: 0 to 100 scale
Procedure, shortened: as §2

winter barley = experiment: Test E winter barley; type: in vivo, Hordeum vulgare; conditions: Postemergence; for Plant response rating, Barley (winter): 0 to 100 scale
Procedure, shortened: as §2

fall panicum = experiment: Test C postemergence fall panicum; type: in vivo, Panicum dichotomiflorum; conditions: 0 to 100 scale, 0 no effect, 100 complete control
Procedure, shortened: as §1

purple nutsedge = experiment: Test C postemergence purple nutsedge; type: in vivo, Cyperus rotundus; conditions: 0 to 100 scale, 0 no effect, 100 complete control
Procedure, shortened: as §1

Italian ryegrass = experiment: Test E Italian ryegrass; type: in vivo, Lolium multiflorum; conditions: Postemergence; for Plant response rating, I. Ryegrass: 0 to 100 scale
Procedure, shortened: as §2

galium = experiment: Test E galium; type: in vivo, Galium aparine; conditions: Postemergence; for Plant response rating, Galium: 0 to 100 scale
Procedure, shortened: as §2

deadnettle = experiment: Test E deadnettle; type: in vivo, Lamium amplexicaule; conditions: Preemergence
redroot pigweed = experiment: Test E redroot pigweed; type: in vivo, Amaranthus retroflexus; conditions: Postemergence; for Plant response rating, Redroot pigweed: 0 to 100 scale
Procedure, shortened: as §2

barnyardgrass = experiment: Test C postemergence barnyardgrass; type: in vivo, Echinochloa crus-galli; conditions: 0 to 100 scale, 0 no effect, 100 complete control
Procedure, shortened: as §1

littleseed canarygrass = experiment: Test E littleseed canarygrass; type: in vivo, Phalaris minor; conditions: Preemergence
sunflower = experiment: Test E sunflower; type: in vivo, Helianthus annuus; conditions: Preemergence
ivyleaf morningglory = experiment: Test C postemergence ivyleaf morningglory; type: in vivo, Ipomoea hederacea; conditions: 0 to 100 scale, 0 no effect, 100 complete control
Procedure, shortened: as §1

arrowleaf sida = experiment: Test C postemergence arrowleaf sida; type: in vivo, Sida rhombifolia; conditions: 0 to 100 scale, 0 no effect, 100 complete control
Procedure, shortened: as §1

spring wheat [1] = experiment: Test E spring wheat; type: in vivo, Triticum aestivum; conditions: Postemergence; for Plant response rating, Spring Wheat: 0 to 100 scale
Procedure, shortened: as §2

spring wheat [2] = experiment: Test E spring wheat; type: in vivo, Triticum aestivum; conditions: Preemergence
spring barley = experiment: Test E spring barley; type: in vivo, Hordeum vulgare; conditions: Postemergence; for Plant response rating, Spring Barley: 0 to 100 scale
Procedure, shortened: as §2

[3] = Rate 250 g/ha, 0 to 100 scale where 0 is no effect and 100 is complete control
[4] = Rate 500 g/ha, 0 no effect, 100 complete control
[5] = Rate 125 g/ha, 0 to 100 scale (0 no effect, 100 complete control)
[6] = Rate 500 g/ha, 0 to 100 scale where 0 is no effect and 100 is complete control

## CC(C)N(C(=O)n1oc(=O)n(C(C)C)c1=O)c1ccc(F)cc1 [Compound 131]
soybean; Rate 140 g/ha
  Plant response rating, Soybean: 20
soybean; Rate 280 g/ha
  Plant response rating, Soybean: 25
soybean; Rate 560 g/ha
  Plant response rating, Soybean: 30
soybean; Rate 1120 g/ha
  Plant response rating, Soybean: 45
Common poppy; Rate 62 g/ha, 0 to 100 scale
  Plant response rating, Common poppy: 65
Common poppy; Rate 125 g/ha, 0 to 100 scale
  Plant response rating, Comnion poppy: 0
Common poppy; Rate 500 g/ha, 0 to 100 scale, 0 no effect, 100 complete control
  Plant response rating, Common poppy: 0
Common poppy; [3]
  Common poppy plant response rating: 0
Field violet; Rate 62 g/ha
  Plant response rating, Field violet: 60
Field violet; Rate 125 g/ha
  Plant response rating, Field violet: 0
Field violet; [4]
  Plant response rating, Field violet: 0
Field violet; [3]
  Field violet plant response rating: 0
Winter barley; Rate 62 g/ha
  Plant response rating, Barley (winter): 5
Winter barley; Rate 125 g/ha
  Plant response rating, Barley (winter): 0
Winter barley; [4]
  Plant response rating, Barley (winter): 20
Winter barley; [3]
  Barley (winter) plant response rating: 0
Fall panicum; Rate 140 g/ha
  Plant response rating Fall panicum: 0
Fall panicum; Rate 280 g/ha
  Plant response rating Fall panicum: 40
Fall panicum; Rate 560 g/ha
  Plant response rating Fall panicum: 90
Fall panicum; Rate 1120 g/ha
  Plant response rating Fall panicum: 90
Purple nutsedge; Rate 140 g/ha
  Plant response rating, Purple nutsedge: 0
Purple nutsedge; Rate 280 g/ha
  Plant response rating, Purple nutsedge: 0
Purple nutsedge; Rate 560 g/ha
  Plant response rating, Purple nutsedge: 0
Purple nutsedge; Rate 1120 g/ha
  Plant response rating, Purple nutsedge: 80
Italian ryegrass; Rate 62 g/ha
  Plant response rating, I. Ryegrass: 50
Italian ryegrass; Rate 125 g/ha
  Plant response rating, I. Ryegrass: 0
Italian ryegrass; [4]
  Plant response rating, I. Ryegrass: 40
Italian ryegrass; [3]
  I. Ryegrass plant response rating: 30
galium; Rate 62 g/ha
  Plant response rating, Galium: 50
galium; Rate 125 g/ha
  Plant response rating, Galium: 10
galium; [4]
  Plant response rating, Galium: 50
galium; [3]
  Galium plant response rating: 0
deadnettle; [5]
  Plant response rating, Deadnettle: 30
deadnettle; Rate 250 g/ha
  Deadnettle plant response rating (0 to 100 scale): 60
deadnettle; [6]
  Plant response rating, Deadnettle: 100
Redroot pigweed; Rate 62 g/ha
  Plant response rating, Redroot pigweed: 5
Redroot pigweed; Rate 125 g/ha
  Plant response rating, Redroot pigweed: 0
Redroot pigweed; [4]
  Plant response rating, Redroot pigweed: 0
Redroot pigweed; [3]
  Redroot pigweed plant response rating: 0
barnyardgrass; Rate 140 g/ha
  Plant response rating, Barnyardgrass: 70
barnyardgrass; Rate 280 g/ha
  Plant response rating, Barnyardgrass: 70
barnyardgrass; Rate 560 g/ha
  Plant response rating, Barnyardgrass: 95
barnyardgrass; Rate 1120 g/ha
  Plant response rating, Barnyardgrass: 95
Littleseed canarygrass; [5]
  Plant response rating, LS canarygrass: 70
Littleseed canarygrass; Rate 250 g/ha
  LS canarygrass plant response rating (0 to 100 scale): 70
Littleseed canarygrass; [6]
  Plant response rating, LS canarygrass: 100
sunflower; [5]
  Plant response rating, Sunflower: 20
sunflower; Rate 250 g/ha
  Sunflower plant response rating (0 to 100 scale): 20
sunflower; [6]
  Plant response rating, Sunflower: 20
Ivyleaf morningglory; Rate 140 g/ha
  Plant response rating I. morningglory: 0
Ivyleaf morningglory; Rate 280 g/ha
  Plant response rating I. morningglory: 0
Ivyleaf morningglory; Rate 560 g/ha
  Plant response rating I. morningglory: 20
Ivyleaf morningglory; Rate 1120 g/ha
  Plant response rating I. morningglory: 50
Arrowleaf sida; Rate 280 g/ha
  Plant response rating Arrowleaf sida: 10
Arrowleaf sida; Rate 560 g/ha
  Plant response rating Arrowleaf sida: 30
Arrowleaf sida; Rate 1120 g/ha
  Plant response rating Arrowleaf sida: 60
Spring wheat [1]; Rate 62 g/ha
  Plant response rating, Spring Wheat: 5
Spring wheat [1]; Rate 125 g/ha
  Plant response rating, Spring Wheat: 0
Spring wheat [1]; [4]
  Plant response rating, Spring Wheat: 40
Spring wheat [1]; [3]
  Spring Wheat plant response rating: 0
Spring wheat [2]; [5]
  Plant response rating, Spring Wheat: 70
Spring wheat [2]; Rate 250 g/ha
  Spring Wheat plant response rating (0 to 100 scale): 100
Spring wheat [2]; [6]
  Plant response rating, Spring Wheat: 100
Spring barley; Rate 62 g/ha
  Plant response rating, Spring Barley: 5
Spring barley; Rate 125 g/ha
  Plant response rating, Spring Barley: 0
Spring barley; [4]
  Plant response rating, Spring Barley: 20
Spring barley; [3]
  Spring Barley plant response rating: 0
